Assay results reported in article PMC4198181, “Gold(I) Complexes of 9-Deazahypoxanthine as Selective Antitumor and Anti-Inflammatory Agents” (PLoS ONE, 2014).

What was measured:
[1] = tested on: human cancer cell lines (MCF7, HOS, A549, G361, HeLa, A2780, A2780R, 22Rv1); assay: MTT in vitro cytotoxicity, summary over the panel of human cancer cell lines; format: cell-based; conditions: 24 h, MTT; HAuCl4 except on G361; read-out: IC50 against all the cancer cell lines tested (inactive up to the stated concentration)
Method: In vitro cytotoxic activity was determined by the MTT assay in human breast adenocarcinoma (MCF7; ECACC no. 86012803), human osteosarcoma (HOS; ECACC no. 87070202), lung carcinoma (A549; ECACC no. 86012804), malignant melanoma (G361; ECACC no. 88030401), cervix epitheloid carcinoma (HeLa; ECACC no. 93021013), ovarian carcinoma (A2780; ECACC no. 93112519), cisplatin-resistant ovarian carcinoma (A2780R; ECACC no. 93112517) and prostate carcinoma (22Rv1; ECACC no 105092802) cancer cell lines, purchased from European Collection of Cell Cultures (ECACC). The cells were cultured according to the ECACC instructions and they were maintained at 37°C and 5% CO2 in a humidified incubator. The primary culture of human hepatocytes (HEP220, batch number HEP220819) was obtained from Biopredic International (France). The culture medium was Williams and HAM's F-12 (1∶1) supplemented with penicillin, streptomycin, ascorbic acid, linoleic acid, holo-transferin, ethanolamine, glucagon, insulin, dexamethasone, pyruvate, glucose, glutamine, amphotericin. The medium was enriched for plating with 2% foetal calf serum (v/v). The medium was exchanged for a serum-free medium the day after and the culture was stabilized for additional 24 h. Thereafter, the cells were ready for treatments. The cultures were maintained at 37°C and 5% CO2 in a humidified incubator. The cells were treated with complexes 1–5 (at the concentration levels of 0.01, 0.1, 1.0, 5.0, 25.0, and 50.0 µM), starting compounds e.g. HL1–5, AuCl, and cisplatin (applied up to 50 µM) for 24 h, using multi-well culture plates of 96 wells. […]
The cytotoxicity data were expressed as the percentage of viability, where 100% represented the treatments with vehicle (0.1% DMF or 0.1% DMSO). […] The IC50 values were calculated from viability curves. […] The significance of the differences between the results was assessed by the ANOVA analysis with p<0.05 considered to be significant (QC Expert 3.2, Statistical software, TriloByte Ltd., Pardubice, Czech Republic).

[2] = tested on: TNF-α secretion in LPS-stimulated macrophage-like THP-1 cells; assay: LPS-induced TNF-α secretion in THP-1 macrophages (ELISA); format: cell-based, human; conditions: 300 nM, 1 h pretreatment, 24 h after LPS
Method: (§1) For the determination of biological activity, we used the human monocytic leukaemia cell line THP-1 (ECACC, Salisbury, UK). The cells were cultivated at 37°C in the RPMI 1640 medium supplemented with 2 mM L-glutamine, 10% FBS, 100 U/mL of penicillin and 100 µg/mL of streptomycin in a humidified atmosphere containing 5% CO2. Stabilized cells (3rd–15th passage) were split into microtitration plates to get a concentration of 500 000 cells/mL and the differentiation to macrophages was induced by phorbol myristate acetate (PMA) dissolved in dimethyl sulfoxide (DMSO) at the final concentration of 50 ng/ml, and the cells were incubated for 24 h. In comparison with monocytes, differentiated macrophages tend to adhere to the bottoms of the cultivation plates. For next 24 h the cells were incubated with a fresh complete RPMI medium, i.e. containing antibiotics and FBS, without PMA. The medium was then aspirated, and the cells were washed with PBS and cultivated for next 24 hours in serum-free RPMI 1640 medium. These prepared macrophages were used for the detection of inflammatory response.
(§2) Differentiated macrophages were pretreated with 300 nM solutions of the tested complexes, HLn, AuCl, [AuCl(PPh3)], PPh3 and Auranofin dissolved in DMSO (the final DMSO concentration was 0.1%) and with 0.1% DMSO solution itself (vehicle) for 1 h; the given concentrations of the tested compounds lack the cytotoxic effect (cell viability >94%) based on the results of WST-1 test. The inflammatory response in pretreated macrophages was triggered by the addition of 1.0 µg/mL lipopolysaccharide (LPS) dissolved in water, while the control cells (CTRL) remained without the LPS treatment.
(§3) Macrophages, which were pretreated with the tested compounds (complexes 1–5, HLn, AuCl, [AuCl(PPh3)], PPh3 and Auranofin) for 1 h, were incubated with LPS for next 24 h. After this period, the medium was collected and the concentration of TNF-α, and IL-1β was determined by the Instant ELISA Kit according to the manufactures' manual.
(§4) The statistically significant differences between individual groups during anti- inflammatory testing were evaluated using a one-way ANOVA test for statistical analysis, followed by Tukey's post-hoc test for multiple comparisons. GraphPad Prism 5.02 (GraphPad Software Inc., San Diego, CA, USA) was used to perform the analysis. The results are presented as arithmetic means±S.E. values.

[3] = tested on: IL-1β secretion in LPS-stimulated macrophage-like THP-1 cells; assay: LPS-induced IL-1β secretion in THP-1 macrophages (ELISA); format: cell-based, human; conditions: 300 nM, 1 h pretreatment, 24 h after LPS
Method: as §1, §2, §3, §4

[4] = tested on: THP-1 monocytic leukaemia cells; assay: WST-1 in vitro cytotoxicity, THP-1; format: cell-based, human; conditions: 24 h treatment, WST-1, 0.16–10.00 µM; read-out: IC50±S.E., THP-1
Method: Before the in vitro anti-inflammatory testing, in vitro cytotoxicity on human monocytic leukaemia cells (THP-1, ECACC no. 88081201) was determined using the WST-1 assay. The THP-1 cells (floating monocytes, 500 000 cells/mL) were incubated in 100 µL of the serum-free RPMI 1640 medium and seeded into 96-well plates in triplicate at 37°C. Measurements were taken 24 h after the treatment with the tested compounds dissolved in 0.1% DMSO in the concentration range of 0.16–10.00 µM. Viability was determined by the WST-1 test according to the manufacturer's manual. The amount of the formed formazan (which correlates to the number of metabolically active cells in the culture) was calculated as a percentage of the control cells, which were treated only with 0.1% DMSO and was set-up as 100%. The IC50 values of the tested compounds were calculated from the obtained data. The WST-1 assay was performed spectrophotometrically at 440 nm (FLUOstar Omega, BMG Labtech).
The cytotoxicity data were expressed as the percentage of viability, where 100% represented the treatments with vehicle (0.1% DMF or 0.1% DMSO). The cytotoxicity data from the cancer cell lines were acquired from three independent experiments (conducted in triplicate) using cells from different passages. The IC50 values were calculated from viability curves. The results are presented as arithmetic means±standard error of the mean (S.E.). The significance of the differences between the results was assessed by the ANOVA analysis with p<0.05 considered to be significant (QC Expert 3.2, Statistical software, TriloByte Ltd., Pardubice, Czech Republic).

TNF-α mRNA = assay: TNF-α gene expression by RT-qPCR in LPS-stimulated THP-1 macrophages; format: cell-based, human; conditions: 300 nM, 2 h after LPS, normalised to β-actin
Method: as §1
(§5) In the order to evaluate the expression of TNF-α, IL-1β, and β-actin mRNA, total RNA was isolated directly from the LPS-stimulated THP-1 cells. THP-1 macrophages were pretreated with compounds 2, 5, and Auranofin at the concentration of 300 nM or the vehicle (0.1% DMSO) only. After 1 h of the incubation, the inflammatory response was induced by LPS [except for the control cells (CTRL)]. After 2 h of the incubation with LPS, the medium was aspirated and the total RNA was isolated directly from the cells in cultivation plates using a RealTime Ready Cell Lysis Kit (Roche), according to the manufacturer's instructions.
(§6) The gene expression was quantified by two-step reverse-transcription quantitative (real-time) PCR (RT-qPCR). The reverse transcription step was performed by Transcriptor Universal cDNA Master using cell lysate as a template. […] The results were normalized to the amount of ROX reference dye, and the change in gene expression was determined by the 2^−ΔΔCT method. […]

IL-1β mRNA = assay: IL-1β gene expression by RT-qPCR in LPS-stimulated THP-1 macrophages; format: cell-based, human; conditions: 300 nM, 2 h after LPS, normalised to β-actin
Method: as §1, §5, §6

[5] = tested on: IκB-α degradation (NF-κB signalling pathway); assay: LPS-induced IκB-α degradation (Western blot) in THP-1 macrophages; format: cell-based, human; conditions: 300 nM, 30 min after LPS
Method: Macrophage-like THP-1 cells were pretreated with the tested compounds and stimulated by LPS as was describe above. Thirty minutes after the addition of LPS, the medium was aspirated and cells were washed by cold phosphate buffer solution (PBS). Subsequently, the cells were collected using the lysis buffer [50 mM Tris-HCl pH 7.5, 1 mM EGTA, 1 mM EDTA, 1 mM sodium orthovanadate, 50 mM sodium fluoride, 5 mM sodium pyrophosphate, 270 mM sucrose, 0.1% (v/v) Triton X-100, and cOmplete Protease Inhibitor Cocktail (Roche, Germany)] and scraper. The lysis of cells was facilitated by a short (≈30 s) incubation in the ultrasonic water bath. The protein concentration was determined according to Bradford's method. For protein separation, 30 µg of protein was loaded onto the 12% polyacrylamide gel. […] The membranes were incubated with the primary anti-IκB-α antibody at the concentration ratio of 1∶500, or with the primary anti-β-actin at the concentration ration of 1∶5 000 at 4°C for 16 h. After washing, the secondary anti-mouse IgG antibody diluted 1∶2 000 was applied on the membranes and incubated at laboratory temperature (22°C) for 1 h. The amount of the bound secondary antibody was detected colorimetrically by an Opti-4CN Kit according to the manufacturer's manual.

[6] = tested on: G361 malignant melanoma cells; assay: MTT in vitro cytotoxicity, G361; format: cell-based, human; conditions: 24 h treatment, read-out: IC50±S.E., G361
Method: In vitro cytotoxic activity was determined by the MTT assay in human breast adenocarcinoma (MCF7; ECACC no. 86012803), human osteosarcoma (HOS; ECACC no. 87070202), lung carcinoma (A549; ECACC no. 86012804), malignant melanoma (G361; ECACC no. 88030401), cervix epitheloid carcinoma (HeLa; ECACC no. 93021013), ovarian carcinoma (A2780; ECACC no. 93112519), cisplatin-resistant ovarian carcinoma (A2780R; […] ECACC no 105092802) cancer cell lines, purchased from European Collection of Cell Cultures (ECACC). […] The primary culture of human hepatocytes (HEP220, batch number HEP220819) was obtained from Biopredic International (France). The culture medium was Williams and HAM's F-12 (1∶1) supplemented with penicillin, streptomycin, ascorbic acid, linoleic acid, holo-transferin, ethanolamine, glucagon, insulin, dexamethasone, pyruvate, glucose, glutamine, amphotericin. The medium was enriched for plating with 2% foetal calf serum (v/v). The medium was exchanged for a serum-free medium the day after and the culture was stabilized for additional 24 h. Thereafter, the cells were ready for treatments. […] The MTT assay was performed spectrophotometrically at 540 nm (TECAN, Schoeller Instruments LLC). The cytotoxicity data were expressed as the percentage of viability, where 100% represented the treatments with vehicle (0.1% DMF or 0.1% DMSO). The cytotoxicity data from the cancer cell lines were acquired from three independent experiments (conducted in triplicate) using cells from different passages. The IC50 values were calculated from viability curves. The results are presented as arithmetic means±standard error of the mean (S.E.).

| SMILES | IC50 [1] | effect on LPS-induced TNF-α secretion [2] | effect on LPS-induced IL-1β secretion [3] | IC50 [4] | effect on TNF-α mRNA transcription (TNF-α mRNA) | effect on IL-1β mRNA transcription (IL-1β mRNA) | effect on LPS-induced IκB degradation [5] | IC50 [6] |
| --- | --- | --- | --- | --- | --- | --- | --- | --- |
| [Au+].[Cl-] [AuCl] | > 50 µM | none of the reference compounds, such as AuCl, HLn, [AuCl(PPh3)] and PPh3, exhibited any expected effect | decreased the production of IL-1β by a manner comparable to free ligands | – | – | – | – | – |
| CC[PH](CC)(CC)[Au][S][C@@H]1O[C@H](COC(C)=O)[C@@H](OC(C)=O)[C@H](OC(C)=O)[C@H]1OC(C)=O [Auranofin, triethylphosphine-(2,3,4,6-tetra-O-acetyl-β-D-thiopyranosato)gold(I), reference compound] | – | – | – | 0.9 ± 0.1 µM | significantly reduce the transcription | significantly reduce the transcription | block moderately the IκB degradation | – |
| [Cl][Au-]([Cl])([Cl])[Cl].[H+] [HAuCl4, reference compound] | > 50 µM | – | – | – | – | – | – | 38.1 ± 2.3 µM |
